According to patent US20230026789A1, “METHODS, SYSTEMS, AND TOOLS FOR LONGEVITY-RELATED APPLICATIONS” (SPRING DISCOVERY, INC., priority 2020, published 2023):
Where a name gives a salt, the structure may show the parent alone.

Columns and labels:
[1] = test system: rVSV-ΔG-mCherry-infected PBMCs from older donors; type: cell-based, human
[2] = test system: T cells in rVSV-ΔG-mCherry-infected PBMCs; type: cell-based, human
[3] = test system: T cells in rVSV-ΔG-mCherry-infected PBMCs; type: cell-based, human; remark: listed apart in the source
[4] = test system: T cells in rVSV-ΔG-mCherry-infected PBMCs; assay: On-age and off-age scores from T-cell image embeddings; type: cell-based, human; conditions: T cells from older donors vs untreated controls
[5] = test system: rVSV-infected PBMCs from older donors; type: cell-based, human
[6] = test system: rVSV-ΔG-mCherry-infected PBMCs
late stage COVID-19 = conditions: cited from earlier work

Molecule	IL-1β level vs old untreated control PBMCs [1]	MCP1 level vs old untreated control PBMCs [1]	TNFα level vs old untreated control PBMCs [1]	percentage of reticular T-cell mitochondria [2]	T-cell age score / aging model readout vs old untreated controls [3]	off-age effects (change orthogonal to age distances) [4]	on-age score (distance from young controls) [4]	outcome of screen ranked by immune aging score and COVID-19 cytokine score [5]	less T cells relative to vehicle-only controls [6] [%]	more dead and infected monocytes relative to vehicle-only controls [6] [%]	percentage of T cells [6]	percentage of dead cells and infected monocytes [6]	patients who lowered their oxygen intake (late stage COVID-19; 15 of 20 late stage COVID-19 patients) [%]	patients with lung lesion opacity absorbed on CT scans (late stage COVID-19; 19 patients) [%]	fever after treatment (late stage COVID-19; within a few days after treatment)
CC(C)[C@]12O[C@H]1[C@@H]1O[C@@]13[C@@]1(C)CCC4=C(COC4=O)[C@@H]1C[C@@H]1O[C@@]13C2=O [Triptonide]	significant differences at one or more doses	significant, dose-dependent reduction	significant differences at one or more doses	dose-dependent decrease	from an older phenotype to a younger phenotype	significant	significantly shifted	identified as a therapy with potential for rejuvenating the aging immune system	19	21	decrease	significant increase			
COC(=O)/C=C/C(=O)OC [dimethyl fumarate, reference compound]							did not improve								
Tocilizumab: IL-6 targeting therapy tested in late stage COVID-19													75.0	90.5	returned to normal
